The text below walks through data of PMC11672292, “Discovery of Balasubramide Derivative with Tissue‐Specific Anti‐Inflammatory Activity Against Acute Lung Injury by Targeting VDAC1” (Advanced Science, 2024).

For data set [1], the target named is T1, VDAC1 (Mus musculus, UniProt Q60932).
T1 construct: endogenous in cells; host or cells: RAW264.7
Put plainly: Cellular thermal shift assay (CETSA) in RAW264.7 cells. Type of data set: binding. The conditions noted are these: 20 µM, versus DMSO. The protocol: (§1) For CETSA experiments, RAW264.7 cells were incubated with DMSO or (+)3C‐20 (20 µM) in DMEM for 3 h at standard culture conditions. After washed twice with PBS, the cells were collected and divided equally into 12 groups using PBS containing protease and phosphatase inhibitor cocktail. All the samples were heated in a module with pre‐set temperature (37–81 °C) for 3 min, and balanced at 25 °C for another 3 min. Samples were freeze‐thawed with liquid nitrogen three times to completely lyse cells. The 60 µL supernatant containing soluble protein was isolated by centrifugation (13 800 × g, 20 min, 4 °C), mixed with 20 µL laemmli buffer (4 ×), and heated for 10 min at 95 °C. Eventually, the samples were separated by 10% SDS‐PAGE gels for immunoblotting analysis. For ITDRF experiments, the procedures and details were similar to CETSA experiments. In brief, the RAW264.7 cells were seeded in 6‐well plates, incubated with different concentrations of (+)3C‐20, and heated at a designed temperature.

For data set [2], the target named is T2, VDAC2 (Mus musculus, UniProt Q60930).
T2 construct: endogenous in cells; host or cells: RAW264.7
T2 sequence (Q60930 1-295): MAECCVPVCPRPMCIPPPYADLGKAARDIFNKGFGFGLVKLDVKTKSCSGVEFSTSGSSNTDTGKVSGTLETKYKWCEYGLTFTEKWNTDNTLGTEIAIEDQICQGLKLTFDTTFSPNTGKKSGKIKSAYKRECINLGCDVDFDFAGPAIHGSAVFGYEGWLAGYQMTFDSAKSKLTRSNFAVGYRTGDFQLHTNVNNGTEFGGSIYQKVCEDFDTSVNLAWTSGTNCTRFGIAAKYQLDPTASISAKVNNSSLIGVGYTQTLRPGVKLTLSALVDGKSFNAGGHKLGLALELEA
The data set is described as above. Type of data set: binding. The conditions noted are these: 20 µM. As to the method:
as §1

Data set [3] is described as follows: in vivo. The conditions noted are these: mouse, iv.
From the text: To test the safety of (+)3C‐20 in mice, as previously reported,^[ [31] ^] we estimated the acute toxicity of (+)3C‐20 in mice using a sequential method.
Data set [4] has as its system intratracheal LPS-induced ALI mice. The data set is described as follows: Intratracheal instillation of LPS-induced ALI model. Type of data set: in vivo, mouse. As to the method:
The intratracheal instillation of the LPS‐induced ALI model in mice has been previously validated.^[ [60], [61] ^] […] The injection volume of all groups was 10 mL kg^−1. […] The mice were fixed in dorsal recumbency, then the skins and muscles of the mice were separated to expose the tracheal after disinfection. Subsequently, mice were intratracheally injected with 50 µL LPS (20 mg kg^−1) or PBS into the lung through tracheal cartilage rings by using insulin syringes and observed after stitching up the muscles and skins. At 6 h after LPS injection, mice were euthanized to collect samples required for subsequent experiments.
After mice were sacrificed, the left lung tissue fixed with 4% paraformaldehyde was embedded in paraffin, cut into 5 µm thick sections, and stained with hematoxylin and eosin.
Mice were stimulated and treated as indicated in experiments and the lung was lavaged three times through the trachea with 500 µL pre‐chilled PBS buffer. The fluids were merged and centrifuged at 600 × g for 10 min. The supernatant was collected to measure total protein using the BCA kit and for pro‐inflammatory cytokines detection by ELISA described above, and cell pellets after centrifugation were resuspended in FACS buffer (PBS with 1% FBS). […] Finally, the samples were washed twice with FACS buffer and analyzed with Cytoflex S (Beckman coulter, USA)

Data set [5] concerns the target T3, recombinant human VDAC1 protein (rhVDAC1) (Homo sapiens, UniProt P21796).
T3 construct: purchased Atagenix, China
The data set is described as follows: Surface plasmon resonance (SPR). Type of data set: binding. As to the method: To investigate the interaction of (+)3C‐20 and recombinant human VDAC1 protein (rhVDAC1), SPR experiments were performed. The overall experimental procedures were based on previous reports and had been improved with some modifications.^[ [35] ^] Briefly, 10 µM (+)3C‐20 was printed on the 3D photo‐crosslinking chip via the Biodot AD1520 chip array printer through a C─H covalent bond connection, and DMSO was conducted as a negative control at the same time. Following the vacuum‐dying and photo‐crosslinking reaction of the chip, the surface of the chip was flowed through with different concentrations (10, 40, 160, 640, 2560 nmol L^−1) of rhVDAC1 protein in PBST at 0.5 µL s^−1 for 600 s. Then, the proteins were dissociated from the surface of the chip in Glycine‐HCl (pH 2.0) at 2 µL s^−1 for 360 s. The binding signals (RU) were detected dynamically using Berthold bScreen LB 991. The RU responses of (+)3C‐20 with rhVDAC1 protein were recorded and ranked to determine the interaction intensity level, and the binding curve and affinity data were calculated by the system according to the Langmuir binding model.
In general terms: SPR reads the build-up and loss of mass on a sensor chip optically.

Data set [6] has as its system BMDMs. The data set is described as follows: Cytosolic mtDNA measurement (qPCR) in BMDMs. Type of data set: cell-based, mouse. To be noted: 10 µM. The protocol: BMDMs were stimulated and treated with 10 µM (+)3C‐20 as indicated. Cytosolic mtDNA collection was carried out as previously described.^[ [25] ^] Briefly, BMDMs were washed twice with PBS, harvested, and resuspended in 200 µL mitochondria isolation reagent (Beyotime, C3601) with protease and phosphatase inhibitor cocktail. Cell resuspension was triturated with a glass homogenizer and centrifuged at 11 000 × g for 10 min at 4 °C to pelleted down mitochondria and cell membrane, and the remaining supernatant contained the cytosolic mtDNA that were measured. After DNA purification from the supernatant with FastPure Cell DNA Isolation Mini Kit (DC102‐01, Vazyme, China) according to the manufacturer's instruction, qPCR was performed using specific mtDNA primers (D‐loop, D‐loop1, D‐loop2, D‐loop3).
(In general: Real-time PCR tracks product formation cycle by cycle.)

T3 sequence (P21796 whole entry): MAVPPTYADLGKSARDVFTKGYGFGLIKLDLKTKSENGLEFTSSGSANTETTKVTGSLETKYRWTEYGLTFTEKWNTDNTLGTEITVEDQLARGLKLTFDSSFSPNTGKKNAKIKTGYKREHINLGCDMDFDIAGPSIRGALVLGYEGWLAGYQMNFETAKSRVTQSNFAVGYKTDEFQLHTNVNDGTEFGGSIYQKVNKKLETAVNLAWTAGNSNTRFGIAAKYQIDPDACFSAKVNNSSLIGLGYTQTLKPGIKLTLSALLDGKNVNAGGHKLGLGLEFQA
T1 sequence (Q60932 14-296): as the sequence (P21796 whole entry) above, with T55N, M129V, A160S, I227V counted along it

Turning to `O=C(CCc1ccc(C(F)(F)F)cc1)O[C@@H]1C(=O)NCCc2c([nH]c3ccccc23)[C@H]1c1ccc(C(F)(F)F)cc1` [(+)3C-20], the “thermal stabilization of VDAC1 (CETSA)” value in data set [1] is “significant thermal stabilization”. Besides, in data set [2], the “thermal stability of VDAC2 (CETSA)” value is “did not improve the thermal stability”. This compound also came in with an LD50 in data set [3] of 185 mg/kg. Also, in data set [4] (50 mg kg^−1, compared to dexamethasone 5 mg kg^−1), the “therapeutic effect in H&E lung histology” value is recorded as “better therapeutic effect”. In addition, the “survival rate of mice” value in data set [4] (after intratracheal instillation of LPS, 72 h observation, versus vehicle group) was “increased the survival rate”. The “lung index (lung organ coefficient)” value in data set [4] (mice, 50 mg kg^−1 i.p., LPS 20 mg kg^−1 i.t.) is reported as “reverse the upregulation of lung index”. For the same compound, the lung wet/dry ratio entry in data set [4] (pre-treatment at 50 mg kg^−1, LPS 20 mg kg^−1 i.t.) is reported as “significantly reduced”. The Kd in data set [5] (hVDAC1, printed in picture of Figure 5G) is 3.95 µM; in data set [5] (rhVDAC1), ~3.95 µM. Moreover, in data set [6], the “increase in cytosolic mtDNA caused by LPS” value was “significantly inhibited”.

In general, LD50 refers to the dose at which mortality reaches 50%. In general, Kd refers to the free concentration of one partner at which half of the binding sites on the other are occupied at equilibrium, for simple one-to-one binding.
